Test results published in US7872035B2, “Angiotensin II antagonists” (AstraZeneca AB, priority 2001, dated 2011).

Assays:
[1] = tested on: patients suffering from migraine; experiment: Pilot double-blind placebo-controlled crossover trial, prophylactic effect in migraine; format: in vivo, human
Procedure: A study in which the effects of the angiotensin II type 1 receptor antagonist candesartan cilexetil (Atacand®) is compared to that of placebo, was carried out to explore the feasability of giving candesartan cilexetil to patients suffering from, or susceptible to, vascular headache conditions, and especially migraine.
The pilot study was a double-blind placebo-controlled crossover trial on the prophylactic effect of the AT II antagonist candesartan cilexetil performed in patients suffering from migraine.
The study provides preliminary data on the feasibility of administering candesartan cilexetil for preventing migraine. It also provides preliminary data on useful concentrations of candesartan cilexetil in this use.

[2] = tested on: patients having mild-to-moderate hypertension; conditions: hypertensive patients, versus placebo; cited from earlier work

Compound | relief of symptoms (migraine) ([1]; one patient with a medical history of migraine, treating themself with Atacand 16 mg, relief subjectively noted) | relief of symptoms (migraine) ([1]; the other patient with a medical history of migraine, relief subjectively noted after treatment with Atacand) | incidence of headache [2]
CCOc1nc2cccc(C(=O)OC(C)OC(=O)OC3CCCCC3)c2n1Cc1ccc(-c2ccccc2-c2nn[nH]n2)cc1 (stereo not drawn) [candesartan cilexetil] | significant relief of symptoms | significant relief of symptoms | 
CCCCC1=NC2(CCCC2)C(=O)N1Cc1ccc(-c2ccccc2-c2nnn[nH]2)cc1 [irbesartan] |  |  | significant reduction
